For 1 compound, thermal conductivity results are on record in the NIST ThermoML archive (doi:10.1016/j.tca.2018.11.010).

The data set in a line: wn = mass fraction of the nth substance listed. To be noted: 298 K; 100 kPa; Liquid; Laser flash apparatus; w1 = 0.9.

Numbers after ± are expanded uncertainties.

Take `CCCCCCCC/C=C\CCCCCCCC(=O)O` [(Z)-9-octadecenoic acid] + CCCCCCCCCCCCCC(=O)O: the thermal conductivity was 0.2513 ± 0.0057 W/m/K.
